Key:
[1] = target: T1, Aromatase (Homo sapiens, UniProt P11511)
T1 sequence (P11511 whole entry): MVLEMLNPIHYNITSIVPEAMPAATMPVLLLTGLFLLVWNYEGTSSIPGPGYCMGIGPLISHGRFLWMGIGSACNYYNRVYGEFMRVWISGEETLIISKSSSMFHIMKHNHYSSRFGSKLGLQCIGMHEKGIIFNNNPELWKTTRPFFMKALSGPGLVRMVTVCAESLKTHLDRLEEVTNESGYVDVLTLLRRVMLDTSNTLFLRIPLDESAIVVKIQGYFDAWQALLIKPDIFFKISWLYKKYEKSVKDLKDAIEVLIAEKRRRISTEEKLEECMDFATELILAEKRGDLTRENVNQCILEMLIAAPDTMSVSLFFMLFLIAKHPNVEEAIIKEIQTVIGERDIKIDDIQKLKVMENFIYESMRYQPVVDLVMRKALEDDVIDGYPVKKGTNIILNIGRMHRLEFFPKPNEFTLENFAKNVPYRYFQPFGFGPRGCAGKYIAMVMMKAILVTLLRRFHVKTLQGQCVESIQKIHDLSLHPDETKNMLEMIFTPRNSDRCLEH
Description: Apparent inhibition constant (Ki) against Cytochrome P450 19A1

[2] = target: T1, Aromatase; remark: listed apart in the source
Description: In vitro inhibition of cytochrome P450 19A1 in human placental microsomes

SMILES | Ki [1] [nM] | IC50 [2] [nM]
CCCCC[C@H]1CC2C3CCC(=O)C3(C)CCC2C2(C)CCCC=C12 (some centres undefined) | 400 | 9000
C[C@H]1CC2C(CCC3(C)C(O)CCC23)C2(C)CCCC=C12 (some centres undefined) | 380 | 3700
C[C@H]1CC2C3CCC(=O)C3(C)CCC2C2(C)CCCC=C12 (some centres undefined) | 3.1 | 37
CC[C@H]1CC2C(CCC3(C)C(O)CCC23)C2(C)CCCC=C12 (some centres undefined) | 180 | 1300
CCCCC[C@H]1CC2C(CCC3(C)C(O)CCC23)C2(C)CCCC=C12 (some centres undefined) | 44000 | > 50000
CC(=O)O[C@H]1CC2C3CCC(=O)C3(C)CCC2C2(C)CCCC=C12 (some centres undefined) | 18 | 160
CCCCCCCC[C@H]1CC2C(CCC3(C)C(O)CCC23)C2(C)CCCC=C12 (some centres undefined) | – | > 50000
CC[C@@H]1CC2C3CCC(=O)C3(C)CCC2C2(C)CCCC=C12 (some centres undefined) | 43 | 320
CCC[C@H]1CC2C3CCC(=O)C3(C)CCC2C2(C)CCCC=C12 (some centres undefined) | 30 | 230
CC[C@@H]1CC2C(CCC3(C)C(O)CCC23)C2(C)CCCC=C12 (some centres undefined) | 340 | 3300
C[C@@H]1CC2C(CCC3(C)C(O)CCC23)C2(C)CCCC=C12 (some centres undefined) | 140 | 1600
CCCCCCCC[C@@H]1CC2C3CCC(=O)C3(C)CCC2C2(C)CCCC=C12 (some centres undefined) | 2600 | > 50000
CCCCC[C@@H]1CC2C3CCC(=O)C3(C)CCC2C2(C)CCCC=C12 (some centres undefined) | 1200 | 12000
CCCCCCCC[C@@H]1CC2C(CCC3(C)C(O)CCC23)C2(C)CCCC=C12 (some centres undefined) | – | > 50000
CO[C@H]1CC2C3CCC(=O)C3(C)CCC2C2(C)CCCC=C12 (some centres undefined) | 12 | 120
CCCCCCCC[C@H]1CC2C3CCC(=O)C3(C)CCC2C2(C)CCCC=C12 (some centres undefined) | 4100 | > 50000
CCCCC[C@@H]1CC2C(CCC3(C)C(O)CCC23)C2(C)CCCC=C12 (some centres undefined) | 100000 | > 50000
CC[C@H]1CC2C3CCC(=O)C3(C)CCC2C2(C)CCCC=C12 (some centres undefined) | 43 | 110
CC12CCCC=C1CCC1C2CCC2(C)C1CC[C@@H]2O (some centres undefined) | 45 | 360
CC(=O)O[C@@H]1CC2C3CCC(=O)C3(C)CCC2C2(C)CCCC=C12 (some centres undefined) | 24 | 260
CCC[C@@H]1CC2C3CCC(=O)C3(C)CCC2C2(C)CCCC=C12 (some centres undefined) | 51 | 440
C[C@@H]1CC2C3CCC(=O)C3(C)CCC2C2(C)CCCC=C12 (some centres undefined) | 5.3 | 49
CO[C@@H]1CC2C3CCC(=O)C3(C)CCC2C2(C)CCCC=C12 (some centres undefined) | 12 | 130
